# Source: PMC4503722, “Novel Phenotypic Outcomes Identified for a Public Collection of Approved Drugs from a Publicly Accessible Panel of Assays” (PLoS ONE, 2015)
# Where two headings read alike, the source gives them in different places.
# Key:
# Assay in all cases: cells
# [1] = test system: nuclear β-catenin in C2C12 cells; type: cell-based
# HCT116 = type: cell-based
# NCI-H716 cells = type: cell-based, Human
# SNU-C1 = type: cell-based
# HeLa cells = type: cell-based; details: read-out: CellCycle G2/M
# [2] = test system: HCT116 cells treated with a GSK3β inhibitor; type: cell-based
# [3] = test system: endothelial tube formation in co-cultures of ECFCs and ADSCs treated with VEGF; type: cell-based, human
# RKO = type: cell-based
# SW480 = type: cell-based
# Colo320 = type: cell-based
# INS-1E cells = type: cell-based, rat
# HT-29 = type: cell-based
# DLD-1 = type: cell-based
# [4] = Homo sapiens, SNU-C1, read-out: Basal_Viability ATP SNU-C1
# [5] = Homo sapiens, SW480, read-out: Basal_Viability ATP SW480
# [6] = Homo sapiens, DLD-1, read-out: Basal_Viability ATP DLD-1
# [7] = Mus musculus, C2C12, S2 Table, module primary assay, 20 / 20.1 codes per legend, read-out: Wnt Pathway
# [8] = Homo sapiens, HCT-116, basal, HCT116, read-out: Basal_Viability ATP HCT116
# [9] = Homo sapiens, NCI-H716, read-out: GLP 1 Secretion
# [10] = Homo sapiens, SNU-C1, basal, SNU-C1, read-out: Basal_Viability ATP SNU-C1
# [11] = Homo sapiens, HeLa, S2 Table, HeLa, 20 = no response at highest concentration
# [12] = Homo sapiens, HCT-116, HCT116 pretreated with GSK3b inhibitor, read-out: GSK3b inh pretreated_Viability ATP HCT116
# [13] = Homo sapiens; read-out: Anti-Angiogenesis
# [14] = Homo sapiens; basal; RKO; read-out: Basal_Viability ATP RKO
# [15] = Homo sapiens, SW480, basal, SW480, read-out: Basal_Viability ATP SW480
# [16] = Homo sapiens; basal; Colo 320; read-out: Basal_Viability ATP Colo 320
# [17] = Rattus norvegicus, INS-1E, read-out: Insulin Secretion
# [18] = Homo sapiens; basal; HT-29; read-out: Basal_Viability ATP HT-29
# [19] = Homo sapiens, DLD-1, basal, DLD-1, read-out: Basal_Viability ATP DLD-1
# [20] = Mus musculus, C2C12, read-out: Wnt Pathway
smiles,measurement,setting,value
"O=C(NOCC1CC1)c1ccc(F)c(F)c1Nc1ccc(I)cc1Cl [PD-184352, reference compound]",EC50,"[1]; Mus musculus, C2C12, read-out: Wnt pot. EC50",> 10000 nM
same,IC50,"HCT116; Homo sapiens, HCT-116, 72 h, read-out: HCT-116 viab. IC50",2 nM
same,IC50,"HCT116; Homo sapiens, HCT-116, read-out: Basal_Viability ATP HCT116",1.79 nM
same,EC50,"NCI-H716 cells; Homo sapiens, NCI-H716, read-out: GLP1 sec. EC50",> 10000 nM
same,IC50,"SNU-C1; Homo sapiens, SNU-C1, 72 h, read-out: SNU-C1 viab. IC50",17 nM
same,IC50,SNU-C1; [4],17.1 nM
same,EC50,"HeLa cells; Homo sapiens, HeLa",> 10000 nM
same,IC50,"[2]; Homo sapiens, HCT-116, 72 h, read-out: HCT-116 (GSK3β) viab. IC50",970 nM
same,IC50,"[2]; Homo sapiens, HCT-116, read-out: GSK3b inh pretreated_Viability ATP HCT116",969 nM
same,IC50,"[3]; Homo sapiens, read-out: Anti-Angio IC50",370 nM
same,IC50,"[3]; Homo sapiens, read-out: Anti-Angiogenesis",368 nM
same,IC50,"RKO; Homo sapiens, RKO, 72 h, read-out: RKO viab. IC50",3 nM
same,IC50,"RKO; Homo sapiens, RKO, read-out: Basal_Viability ATP RKO",3.19 nM
same,IC50,"SW480; Homo sapiens, SW480, 72 h, read-out: SW480 viab. IC50",5 nM
same,IC50,SW480; [5],4.95 nM
same,IC50,"Colo320; Homo sapiens, COLO 320, 72 h, read-out: Colo320 viab. IC50",850 nM
same,IC50,"Colo320; Homo sapiens, COLO 320, read-out: Basal_Viability ATP Colo 320",848 nM
same,EC50,"INS-1E cells; Rattus norvegicus, INS-1E, read-out: Ins. sec. EC50",> 10000 nM
same,IC50,"HT-29; Homo sapiens, HT-29, 72 h, read-out: HT-29 viab. IC50",26 nM
same,IC50,"HT-29; Homo sapiens, HT-29, read-out: Basal_Viability ATP HT-29",26.3 nM
same,IC50,"DLD-1; Homo sapiens, DLD-1, 72 h, read-out: DLD-1 viab. IC50",2200 nM
same,IC50,DLD-1; [6],2160 nM
OC[C@H]1O[C@@H](n2cnc3c(S)ncnc32)[C@H](O)[C@@H]1O [Thioinosine],EC50,[1]; [7],> 10000 nM
same,IC50,HCT116; [8],28.6 nM
same,EC50,NCI-H716 cells; [9],> 10000 nM
same,IC50,SNU-C1; [10],2180 nM
same,EC50,HeLa cells; [11],> 10000 nM
same,IC50,[2]; [12],504 nM
same,IC50,[3]; [13],1420 nM
same,IC50,RKO; [14],14.4 nM
same,IC50,SW480; [15],28.7 nM
same,IC50,Colo320; [16],1060 nM
same,EC50,INS-1E cells; [17],> 10000 nM
same,IC50,HT-29; [18],118 nM
same,IC50,DLD-1; [19],63 nM
O=C(Nc1ccc(Br)cc1)c1cc(Br)cc(Br)c1O [Tribromsalan],EC50,[1]; [7],> 10000 nM
same,IC50,HCT116; [8],3 nM
same,EC50,NCI-H716 cells; [9],> 10000 nM
same,IC50,SNU-C1; [10],1 nM
same,EC50,HeLa cells; [11],> 10000 nM
same,IC50,[2]; [12],1 nM
same,IC50,[3]; [13],1810 nM
same,IC50,RKO; [14],3 nM
same,IC50,SW480; [15],1 nM
same,IC50,Colo320; [16],3 nM
same,EC50,INS-1E cells; [17],> 10000 nM
same,IC50,HT-29; [18],1 nM
same,IC50,DLD-1; [19],1 nM
Oc1ccc([C@@H]2CNCc3c2ccc(O)c3O)cc1O [Zelandopam],EC50,[1]; read-out: Wnt Pathway,> 10000 nM
same,IC50,HCT116; read-out: Basal_Viability ATP HCT116,> 20000 nM
same,EC50,NCI-H716 cells; read-out: GLP 1 Secretion,5950 nM
same,IC50,SNU-C1; read-out: Basal_Viability ATP SNU-C1,> 20000 nM
same,EC50,HeLa cells,> 10000 nM
same,IC50,[2]; read-out: GSK3b inh pretreated_Viability ATP HCT116,188 nM
same,IC50,[3]; read-out: Anti-Angiogenesis,> 10000 nM
same,IC50,RKO; read-out: Basal_Viability ATP RKO,33.2 nM
same,IC50,SW480; read-out: Basal_Viability ATP SW480,> 20000 nM
same,IC50,Colo320; read-out: Basal_Viability ATP Colo 320,466 nM
same,EC50,INS-1E cells; read-out: Insulin Secretion,> 10000 nM
same,IC50,HT-29; read-out: Basal_Viability ATP HT-29,> 20000 nM
same,IC50,DLD-1; read-out: Basal_Viability ATP DLD-1,> 20000 nM
CCCCC(CC)CNC(=N)NC(=N)NCCCCCCNC(=N)NC(=N)NCC(CC)CCCC (stereo not drawn) [alexidine],EC50,[1]; [7],> 10000 nM
same,IC50,HCT116; [8],710 nM
same,EC50,NCI-H716 cells; [9],> 10000 nM
same,IC50,SNU-C1; [10],94.1 nM
same,EC50,HeLa cells; [11],> 10000 nM
same,IC50,[2]; [12],396 nM
same,IC50,[3]; [13],408 nM
same,IC50,RKO; [14],223 nM
same,IC50,SW480; [15],333 nM
same,IC50,Colo320; [16],4.1 nM
same,EC50,INS-1E cells; [17],> 10000 nM
same,IC50,HT-29; [18],30.2 nM
same,IC50,DLD-1; [19],19.7 nM
O=C1C2CC=CCC2C(=O)N1SC(Cl)(Cl)Cl (stereo not drawn) [captan],EC50,[1]; [20],511 nM
same,IC50,HCT116; [8],1760 nM
same,EC50,NCI-H716 cells; [9],> 10000 nM
same,IC50,SNU-C1; [10],903 nM
same,EC50,HeLa cells; [11],> 10000 nM
same,IC50,[2]; [12],2210 nM
same,IC50,[3]; [13],> 10000 nM
same,IC50,RKO; [14],402 nM
same,IC50,SW480; [15],78.8 nM
same,IC50,Colo320; [16],306 nM
same,EC50,INS-1E cells; [17],> 10000 nM
same,IC50,HT-29; [18],500 nM
same,IC50,DLD-1; [19],348 nM
CCCCCCCCCCCC[N+](C)(C)Cc1ccccc1 [dimethyldodecylbenzylammonium],EC50,"[1]; S2 Table, module primary assay, 20 / 20.1 codes per legend, read-out: Wnt Pathway",> 10000 nM
same,IC50,"HCT116; basal, HCT116, read-out: Basal_Viability ATP HCT116",1960 nM
same,EC50,"NCI-H716 cells; S2 Table, module primary assay, 20 / 20.1 codes per legend, read-out: GLP 1 Secretion",> 10000 nM
same,IC50,"SNU-C1; basal, SNU-C1, read-out: Basal_Viability ATP SNU-C1",20 nM
same,EC50,"HeLa cells; S2 Table, HeLa, 20 = no response at highest concentration",> 10000 nM
same,IC50,"[2]; HCT116 pretreated with GSK3b inhibitor, read-out: GSK3b inh pretreated_Viability ATP HCT116",> 20000 nM
same,IC50,[3]; read-out: Anti-Angiogenesis,> 10000 nM
same,IC50,RKO; basal; RKO; read-out: Basal_Viability ATP RKO,3070 nM
same,IC50,"SW480; basal, SW480, read-out: Basal_Viability ATP SW480",7950 nM
same,IC50,Colo320; basal; Colo 320; read-out: Basal_Viability ATP Colo 320,8990 nM
same,EC50,"INS-1E cells; S2 Table, module primary assay, 20 / 20.1 codes per legend, read-out: Insulin Secretion",> 10000 nM
same,IC50,HT-29; basal; HT-29; read-out: Basal_Viability ATP HT-29,465 nM
same,IC50,"DLD-1; basal, DLD-1, read-out: Basal_Viability ATP DLD-1",738 nM
CC(=O)O[C@@]12CO[C@@H]1C[C@H](O)[C@@]1(C)C(=O)[C@H](O)C3=C(C)[C@@H](OC(=O)[C@H](O)[C@@H](NC(=O)OC(C)(C)C)c4ccccc4)C[C@@](O)([C@@H](OC(=O)c4ccccc4)[C@H]21)C3(C)C [docetaxel],EC50,"[1]; Mus musculus, C2C12, IC50 / EC50, C2C12 beta-catenin translocation, read-out: Wnt Pathway",65.2 nM
same,IC50,"HCT116; Homo sapiens, HCT-116, basal, read-out: Basal_Viability ATP HCT116",1 nM
same,EC50,"NCI-H716 cells; Homo sapiens, IC50 / EC50, NCI-H716, read-out: GLP 1 Secretion",> 10000 nM
same,IC50,"SNU-C1; Homo sapiens, SNU-C1, basal, read-out: Basal_Viability ATP SNU-C1",> 20000 nM
same,EC50,"HeLa cells; Homo sapiens, HeLa, IC50 / EC50, HeLa",3.35 nM
same,IC50,"[2]; Homo sapiens, HCT-116, GSK3b inhibitor pretreated, read-out: GSK3b inh pretreated_Viability ATP HCT116",1 nM
same,IC50,"[3]; Homo sapiens, IC50 / EC50; endothelial tube area, ADSC/ECFC co-culture; read-out: Anti-Angiogenesis",1 nM
same,IC50,"RKO; Homo sapiens, RKO; read-out: Basal_Viability ATP RKO",1 nM
same,IC50,"SW480; Homo sapiens, SW480, basal, read-out: Basal_Viability ATP SW480",1 nM
same,IC50,"Colo320; Homo sapiens, COLO 320; read-out: Basal_Viability ATP Colo 320",1 nM
same,EC50,"INS-1E cells; Rattus norvegicus, IC50 / EC50, INS-1E, read-out: Insulin Secretion",> 10000 nM
same,IC50,"HT-29; Homo sapiens, HT-29; read-out: Basal_Viability ATP HT-29",1 nM
same,IC50,"DLD-1; Homo sapiens, DLD-1, basal, read-out: Basal_Viability ATP DLD-1",8200 nM
COc1cccc2c1C(=O)c1c(O)c3c(c(O)c1C2=O)C[C@@](O)(C(=O)CO)C[C@@H]3O[C@H]1C[C@H](N)[C@H](O[C@@H]2CCCCO2)[C@H](C)O1 [pirarubicin],EC50,[1]; [20],3950 nM
same,IC50,HCT116; [8],911 nM
same,EC50,NCI-H716 cells; [9],> 10000 nM
same,IC50,SNU-C1; [4],9260 nM
same,EC50,HeLa cells; [11],80.6 nM
same,IC50,[2]; [12],1280 nM
same,IC50,[3]; [13],6.3 nM
same,IC50,RKO; [14],1010 nM
same,IC50,SW480; [5],7820 nM
same,IC50,Colo320; [16],2010 nM
same,EC50,INS-1E cells; [17],> 10000 nM
same,IC50,HT-29; [18],> 20000 nM
same,IC50,DLD-1; [6],8950 nM
